This is an account of results in patent publication US7115623B2, “PDE IV inhibitors” (Aska Pharmaceuticals Co., Ltd., priority 2001, dated 2006).

Series [1] deals with actively sensitized guinea pigs. The experiment in a line: Inhibition of antigen-induced immediate asthmatic response (airway resistance, Konzett-Rossler method). In kind it is in vivo, Male Hartley outbred guinea pigs. As to conditions: Cavia porcellus; orally, 60 minutes prior to antigen-challenge, ovalbumin-sensitized guinea pigs, Probit method. Here is the method: Male Hartley outbred guinea pigs were sensitized by administering intraperitoneally physiological saline (0.5 ml) containing ovalbumin (1 mg, antigen) and 5×10^9 inactivated Bordetella pertussis dead cells (adjuvant). Eleven to thirteen days after the first sensitization, 0.05 ml of an ovalbumin solution (1 mg/ml) (ovalbumin is dissolved in physiological saline) was administered to the lateroabdominal region of each guinea pig intracutaneously. An establishment of sensitization was checked relying on cutaneous reaction. Only guinea pigs wherein significant reddening responses occurred 5 to 10 minutes later were employed in the next measurement test for airway resistance.
The guinea pigs (3 animals per group) actively sensitized in the above step (1) were employed to measure for their airway pressure according to Konzett-Rossler method (Arch. Exp. Path. Pharmakol., 195, 71 (1940)).
Thirteen days after the final sensitization, guinea pigs fasted overnight, and were on the next day anesthetized with a pentobarbital solution (30 mg/1.2 ml/kg, dissolved in physiological saline, intraperitoneal administration). After the guinea pigs were fixed in a supine position, their trachea was incised followed by insertion with one port of a 4-port cannula. Among the remaining 3 ports, 2 ports were connected to an artificial respirator (Model 683, Harvard). The animals were ventilated with 10 ml/kg of air per ventilation at a rate of 60 beats/min via the artificial respirator from the cannula. One port remainder was connected to a respiratory amplifier (AR-601G, Nihon Kohden, Japan) via an airflow resistance tube (TV-241T, Nihon Kohden, Japan) and a differential pressure transducer (TP-602T, Nihon Kohden, Japan) connected with a control box (RY-111S, Nihon Kohden, Japan). From a catheter inserted into a left carotid artery, blood pressures were monitored with a blood pressure measurement unit (AP641G, NEC Corp., Japan) via a blood pressure transducer (TP-300T, Nihon Kohden, Japan), and heart rates were recorded on a thermal recorder (WT-685G, Nihon Kohden, Japan), relying on blood pressure pulse waves after being led to a cardiograph unit (AT601G, Nihon Kohden, Japan).
After airway pressure became stable, an ovalbumin solution. (1 mg/ml, dissolved in physiological saline) was administered at a dose of 1 ml/kg via a tube with which the right jugular vein of guinea pigs was cannulated.
Each test compound was suspended in 0.5% CMC—Na solution and administered orally with an oral sound at a dose of 0.03 to 20 mg/2 ml/kg 60 minutes prior to the antigen-challenge. Control groups received only 0.5% CMC—Na solution in an equivalent amount. The pentobarbital-anesthetization and tracheal incision were conducted 30 minutes prior to the antigen-challenge.
Each percent reduction of increase in airway resistance (each test compound-administered group versus control group) was calculated according to the equation given below. ED50 was obtained by Probit method.

The subject of series [2] is TNF-α production. Description: Inhibition of TNF-α production in galactosamine- and LPS-stimulation. The class given is in vivo, C3H/HeN mice. As to conditions: Mus musculus; oral, 1 hour before i.v. galactosamine 800 mg/kg and LPS 5 μg/kg; serum TNF-α by ELISA 1 hour later. Here is the method:
A suspension of each test compound in 0.5% CMC—Na solution was administered orally to C3H/HeN mice at a dose of 0.10 to 10 mg/kg. One hour later, the animals received intravenously galactosamine at a dose of 800 mg/kg and LPS at a dose 5 μg/kg to raise the induction of TNF-α production. One hour later after the galactosamine- and LPS-administration, amounts of TNF-α in serum samples were measured by ELISA.
(In general: ELISA stands for enzyme-linked immunosorbent assay.)

The test system of series [3] is PDE IV isozymes separated from U937 culture cells. The experiment in a line: PDE IV inhibition ([3H]-cAMP hydrolysis). The class given is biochemical. The note with it: cAMP 1 μM as substrate, 30° C., 20 minutes, Probit method. Here is the method: PDE IV isozymes as used herein were separated from U937 culture cells by using an anion exchange chromatography. Type IV PDE isozyme was admixed with ethylene glycol (EG) to adjust the final EG concentration to 30%, then stored at −20° C. and diluted when used. The enzymatic activity for PDE IV was measured using cAMP as a substrate.
Each test compound was dissolved in DMSO to adjust the final concentration to 1% (2.5 μl/tube). Incubation buffer solution (pH7.5): • Tris-HCl (50 mM), magnesium chloride (6 mM), dithiothreitol (2.5 mM), 5-nucleotidase (4 μg/ml), bovine serum albumin (0.23 mg/ml), and cAMP (1 μM).
A mixture of the aforementioned test compound solution and the buffer solution was incubated at 30° C. for 20 minutes. The reaction was quenched by admixing with 1 ml of anion exchange resin slurry (AG1-X8, 200–400 meshes, chloride form; Bio-Rad) to absorb unreacted substrates. After the reaction stopped, the mixture was centrifuged at 800×g for 10 minutes, and the resulting supernatant was collected with vials in 250 μl aliquots. To each vial was added 5 ml of ACS-II (scintillator, Amersham). The radioactivity was measured with a liquid scintillator counter for [^3H]-adenosine and set as the PDE IV activity.

The subject of series [4] is Male Marshall ferrets. Description: Emetic action. The note with it: oral, observed within 12 hours. The class given is in vivo. Here is the method:
Male Marshall ferrets (each group consisting of 3 animals) as used herein fasted overnight. On the next day, a suspension of each test compound in 0.5% CMC—Na solution was administered orally to the animals. […] Next, each maximum tolerance dose against emesis was obtained. SB207499 was used for the reference compound in this assay.

Series [5] concerns ICR mice. Description: Toxicology study. In kind it is in vivo. As to conditions: oral 300 mg/10 ml/kg. Here is the method:
Each Compound (Example Nos. 7 and 8) was administered orally to ICR mice (7 animals per group) as a test compound. […] Each test compound was suspended in 0.5% CMC—Na solution and given orally to the animal at a dose of 300 mg/10 ml/kg.

On to `Nc1cccc(-n2c(=O)c(CCCc3ccncc3)cc3cccnc32)c1` [Example No. 7, 1-(3-Aminophenyl)-3-[3-(pyridin-4-yl)propyl]-1,8-naphthyridin-2(1H)-one], for which the 50% effective dose (ED50) (commonly the midpoint of the dose-response relation) in series [1] was 1.1 mg/kg. This compound also displayed a median effective dose (ED50) in series [2] of 0.45 mg/kg. In addition, inhibition in series [3] was half-maximal at 0.23 µM (IC50). The “Emetic actions at asthmatic response-inhibitory ED50 level” value in series [4] (dose = ED50 of Assay Example 2) is “no observation for emetic actions”. Further, in series [5], the Body weight gain result is on record as “No reduction of body weight gains was observed”, the Mortality result is listed as “None of the animals were died” and the “Other parameters (general health conditions)” value is “no abnormality was observed”.
Turning to `COc1ccc([C@]2(C#N)CC[C@@H](C(=O)O)CC2)cc1OC1CCCC1` [SB207499, cis-4-cyano-4-[3-(cyclopentyloxy)-4-methoxyphenyl]cyclohexane-1-carboxylic acid, reference compound], the median effective dose (ED50) was determined as 20 mg/kg in series [1] and 0.9 mg/kg in series [2]. Further, in series [3], the concentration for half-maximal inhibition (IC50) – broadly, the concentration at which inhibition is half-maximal – amounted to 0.03 µM. Also, the “Emetic activity at a half of the ED50 dose” value in series [4] (a half of the ED50 dose of Assay Example 2) is “elicitation of emetic activity has been found”.
